Assay results taken from patent US20200087625A1, “METHODS FOR ISOLATING, EXPANDING AND ADMINISTERING CANCER SPECIFIC CD8+ T CELLS” (priority 2017, published 2020).

Experiments:
[1] = test system: 4T1-GLF cells; test: In vivo imaging (IVIS) of lung tumor signals, 4T1-GLF; parameters: species or system BALB/c mice; details: 200 μg i.p. day -1; early phase 3 h and 6 h, late phase days 7, 10, 14
Procedure: FIGS. 25A-25F. Innate immune cells, NK cells and dendritic cells are activated following 1V270 therapy and contribute to anti-metastatic effects (A-C) Systemic administration of 1V270 activates dendritic cells and increases CD8^+ cell recruitment in the lung draini lymph node. (A) BALB/c mice (n=S/group) were treated with 1V270 on day −1 and then tumor cells were i.v. administered on day 0. Seven days later, mediastinal lymph node (mLN) cells were stained for dendritic cells (DC; CD45^+CD11c^+MHC classll^+). (B) DCs were further stained for CD80 and CD86. […] Tumor signals were quantified by IVIS. […] On the next day, lung cells were stained for NK markers (CD45^+[…] NKp46^+CD49^+) and analyzed by flow cytometry. […] Tumor signals were analyzed as described above. […]
GFP and luciferase (GLF)-expressing tumor cells (2×10^4 of 4T1-GLF, 5×10^5 of B16-GLF, and […] of LLC-GLF) were i.v. injected into BALB/c mice for 4T1 models, BG-albino or wild-type C57BU6 for B16 melanoma or LLC models). […] Image data were acquired by 1 Ss exposure using the IVIS Spectrum and analyzed using the Living Image software, version 4.5.2 (Perkin Elmer, Waltham, Mass.). We confirmed that the tumor signals in the lungs at day 10 correlated with the number of lung metastasis determined on day 21, as well as the overall survival (Supplemental figures 10). […]

[2] = test system: dendritic cells; test: Dendritic cell activation and CD8+ T cell recruitment in mLN and lungs; assay type: in vivo, BALB/c mice; details: day 7
Procedure: FIGS. 25A-25F. Innate immune cells, NK cells and dendritic cells are activated following 1V270 therapy and contribute to anti-metastatic effects (A-C) Systemic administration of 1V270 activates dendritic cells and increases CD8^+ cell recruitment in the lung draini lymph node. (A) BALB/c mice (n=S/group) were treated with 1V270 on day −1 and then tumor cells were i.v. administered on day 0. Seven days later, mediastinal lymph node (mLN) cells were stained for dendritic cells (DC; CD45^+CD11c^+MHC classll^+). (B) DCs were further stained for CD80 and CD86. (C) The mLN cells were also stained for central memory CD8^+ T cells (CD3+CD8^+CD44^+CD62L^+), effector memory CD8^+ T cells (CD3+CD8^+CD44^+CD62L^+), and naive CD8^+ T cells (CD3+CD8^+CD44^−CD62L^−). Each dot indicates an individual mouse and horizontal and vertical bars indicate means±SEM. Data are representative of 3 independent experiments showing similar results. *P<0.05, **P<0.01 by Mann-Whitney U test comparing the individual groups. (D-F) In vivo imaging analyses using GLF•expressing 4T1 cells (4T1-GLF). (D) BALB/c mice (n=14-15/group) were i.p, administered with 200 μg 1V270 or vehicle. Next day, 2×10^4 4T1-GLF cells were i.v. injected through the tail vein. Tumor signals were quantified by IVIS. Data (mean±SEM) were pooled from 3 independent experiments showing similar results. *P<0.05, **P<0.01 by two-way ANOVA using a Bonferroni post hoc test comparing treatment groups against the vehicle group. […] (E,F) NK cells recruited by 1V270 therapy prevent colonization of 4T1 cells. (E) BALB/c mice (n=G−7/group) were treated with 1V270 (200 μg/injection) on day −1 and then tumor cells were i.v. administered on day 0. On the next day, lung cells were stained for NK markers (CD45^+[…] NKp46^+CD49^+) and analyzed by flow cytometry. […] Tumor signals were analyzed as described above. […]
Since the 1V270 therapy induced a tumor-specific CD8^+ T cell response in the 4T1 model, we evaluated whether the therapy activated APCs in the lungs, and/or in the draining lymph nodes. […]

In the case of CCCCCCCCC=CCCCCCCCC(=O)OCC(COP(=O)(O)OCCNC(=O)c1ccc(Cn2c(=O)[nH]c3c(N)nc(OCCOC)nc32)cc1)OC(=O)CCCCCCCC=CCCCCCCCC (stereo not shown) [1V270], the “lung tumor signals (IVIS)” value [1] was “significantly suppressed the tumor signals”, the “frequencies of cells expressing co-stimulatory molecules (CD80 or CD86)” value ([2]; 1V270 i.p. day -1) was “significantly increased” and the “recruitment of CD8+ T cells (central memory, effector memory, naive)” value ([2]; mLN) was “recruitment of CD8^+ T cells with memory and nalve phenotypes”. The “population of CD11c+ dendritic cells” value ([2]; mLNs and lungs, 1V270 i.p. day -1) was “increased in both mLNs and the lungs”.
